Reference: the kinase profiling compilation of Christmann-Franck et al. (2016)
pIC50: −log10 of the molar value.

Legend:
PIM2 (human) [1] = target: PIM2 (human) (UniProt Q9P1W9); assay: SelectScreen, TR FRET
PIM1 (human) [2] = target: PIM1 (human) (UniProt P11309); assay: SelectScreen, TR FRET
DAPK2 (human) = DAPK2 (human) (UniProt Q9UIK4); assay: KINOMEscan competition binding; conditions: compound 10.0 µM
[3] = tested on: EGFR (human), P00533 [G719S]; assay: KINOMEscan competition binding; conditions: compound 10.0 µM
STK17A (human) = STK17A (human) (UniProt Q9UEE5); assay: KINOMEscan competition binding; conditions: compound 10.0 µM
GAK (human) = GAK (human) (UniProt O14976); assay: KINOMEscan competition binding; conditions: compound 10.0 µM
Sequence of GAK (human) (O14976 whole entry, looked up): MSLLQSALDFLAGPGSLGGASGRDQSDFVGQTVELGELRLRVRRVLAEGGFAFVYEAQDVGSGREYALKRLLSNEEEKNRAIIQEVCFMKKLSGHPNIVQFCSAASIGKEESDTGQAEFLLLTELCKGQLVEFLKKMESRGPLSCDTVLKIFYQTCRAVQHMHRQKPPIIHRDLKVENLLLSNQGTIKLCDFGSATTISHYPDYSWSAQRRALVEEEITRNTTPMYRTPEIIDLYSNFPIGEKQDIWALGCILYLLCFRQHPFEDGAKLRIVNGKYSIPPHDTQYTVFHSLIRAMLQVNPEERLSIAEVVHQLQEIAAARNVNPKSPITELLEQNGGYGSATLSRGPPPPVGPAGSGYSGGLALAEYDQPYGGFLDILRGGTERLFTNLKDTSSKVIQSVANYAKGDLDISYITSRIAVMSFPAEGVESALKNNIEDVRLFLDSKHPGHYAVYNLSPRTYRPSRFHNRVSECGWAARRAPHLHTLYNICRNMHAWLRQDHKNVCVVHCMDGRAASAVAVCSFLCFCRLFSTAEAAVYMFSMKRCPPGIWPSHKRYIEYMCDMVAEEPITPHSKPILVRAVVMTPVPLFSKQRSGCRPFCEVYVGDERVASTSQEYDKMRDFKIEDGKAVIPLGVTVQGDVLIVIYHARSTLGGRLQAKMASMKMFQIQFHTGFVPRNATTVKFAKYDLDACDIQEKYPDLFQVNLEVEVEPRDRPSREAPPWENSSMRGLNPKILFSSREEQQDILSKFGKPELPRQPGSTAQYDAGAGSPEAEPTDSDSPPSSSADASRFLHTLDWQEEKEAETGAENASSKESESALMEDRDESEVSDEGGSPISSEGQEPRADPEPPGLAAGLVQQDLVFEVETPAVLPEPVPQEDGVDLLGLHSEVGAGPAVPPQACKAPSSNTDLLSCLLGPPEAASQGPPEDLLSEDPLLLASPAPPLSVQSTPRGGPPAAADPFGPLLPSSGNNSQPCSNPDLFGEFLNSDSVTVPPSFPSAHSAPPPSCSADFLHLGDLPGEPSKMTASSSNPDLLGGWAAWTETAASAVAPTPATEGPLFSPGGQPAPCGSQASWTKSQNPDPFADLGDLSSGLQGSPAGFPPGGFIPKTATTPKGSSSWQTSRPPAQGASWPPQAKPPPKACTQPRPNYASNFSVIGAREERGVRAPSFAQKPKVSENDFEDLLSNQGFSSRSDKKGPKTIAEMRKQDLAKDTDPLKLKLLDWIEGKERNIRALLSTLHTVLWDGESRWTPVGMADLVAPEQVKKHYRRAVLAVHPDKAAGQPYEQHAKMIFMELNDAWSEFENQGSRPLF

RIPK2 (human) = RIPK2 (human) (UniProt O43353); assay: KINOMEscan competition binding; conditions: compound 10.0 µM
PIK3C2B (human) = PIK3C2B (human) (UniProt O00750); assay: KINOMEscan competition binding; conditions: compound 10.0 µM
STK17B (human) = STK17B (human) (UniProt O94768); assay: KINOMEscan competition binding; conditions: compound 10.0 µM
[4] = tested on: EGFR (human), P00533 [G719C; 746-750 del]; assay: KINOMEscan competition binding; conditions: compound 10.0 µM
PIM2 (human) [5] = target: PIM2 (human) (UniProt Q9P1W9); assay: KINOMEscan competition binding; conditions: compound 10.0 µM
[6] = target: TYK2 JH2 pseudokinase (human) (UniProt P29597); assay: KINOMEscan competition binding; conditions: compound 10.0 µM
PIK3CD (human) = PIK3CD (human) (UniProt O00329); assay: KINOMEscan competition binding; conditions: compound 10.0 µM
CSNK2A2 (human) = CSNK2A2 (human) (UniProt P19784); assay: KINOMEscan competition binding; conditions: compound 10.0 µM
[7] = tested on: EGFR (human), P00533 [752-759 del]; assay: KINOMEscan competition binding; conditions: compound 10.0 µM
RPS6KA4 KD2 (human) = RPS6KA4 KD2 (human) (UniProt O75676); assay: KINOMEscan competition binding; conditions: compound 10.0 µM
PIM1 (human) [8] = target: PIM1 (human) (UniProt P11309); assay: KINOMEscan competition binding; conditions: compound 10.0 µM
MYLK4 (human) = MYLK4 (human) (UniProt Q86YV6); assay: KINOMEscan competition binding; conditions: compound 10.0 µM
ACVR2B (human) = ACVR2B (human) (UniProt Q13705); assay: KINOMEscan competition binding; conditions: compound 10.0 µM
[9] = tested on: EGFR (human), P00533 [A750P; 747-749 del]; assay: KINOMEscan competition binding; conditions: compound 10.0 µM
BMPR2 (human) = BMPR2 (human) (UniProt Q13873); assay: KINOMEscan competition binding; conditions: compound 10.0 µM
[10] = tested on: EGFR (human), P00533 [747-751 del / S ins]; assay: KINOMEscan competition binding; conditions: compound 10.0 µM
MAPK15 (human) = MAPK15 (human) (UniProt Q8TD08); assay: KINOMEscan competition binding; conditions: compound 10.0 µM
[11] = tested on: EGFR (human), P00533 [P753S; 747-752 del]; assay: KINOMEscan competition binding; conditions: compound 10.0 µM
[12] = tested on: EGFR (human), P00533 [L861Q]; assay: KINOMEscan competition binding; conditions: compound 10.0 µM
RPS6KA6 KD2 (human) = RPS6KA6 KD2 (human) (UniProt Q9UK32); assay: KINOMEscan competition binding; conditions: compound 10.0 µM
Sequence of RPS6KA6 KD2 (human) (Q9UK32 whole entry, looked up): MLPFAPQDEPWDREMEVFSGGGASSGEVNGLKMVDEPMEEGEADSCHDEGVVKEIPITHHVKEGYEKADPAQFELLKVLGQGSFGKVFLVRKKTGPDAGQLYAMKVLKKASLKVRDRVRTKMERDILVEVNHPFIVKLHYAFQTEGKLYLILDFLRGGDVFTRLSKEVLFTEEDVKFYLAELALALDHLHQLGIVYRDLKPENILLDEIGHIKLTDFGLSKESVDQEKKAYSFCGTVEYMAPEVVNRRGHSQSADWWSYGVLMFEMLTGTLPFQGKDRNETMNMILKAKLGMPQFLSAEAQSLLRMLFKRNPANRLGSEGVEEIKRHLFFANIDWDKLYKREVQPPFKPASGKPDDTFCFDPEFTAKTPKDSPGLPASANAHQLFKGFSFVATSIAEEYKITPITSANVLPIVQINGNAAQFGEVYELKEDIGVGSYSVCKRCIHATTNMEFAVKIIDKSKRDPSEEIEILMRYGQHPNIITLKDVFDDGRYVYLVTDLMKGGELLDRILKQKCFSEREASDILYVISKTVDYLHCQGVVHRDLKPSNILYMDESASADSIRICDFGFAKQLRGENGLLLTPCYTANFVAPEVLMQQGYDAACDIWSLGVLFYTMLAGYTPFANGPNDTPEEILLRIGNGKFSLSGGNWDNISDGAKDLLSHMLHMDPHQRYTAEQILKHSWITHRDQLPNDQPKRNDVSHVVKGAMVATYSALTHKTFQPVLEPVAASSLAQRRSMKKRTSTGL

TEK (human) = TEK (human) (UniProt Q02763); assay: KINOMEscan competition binding; conditions: compound 10.0 µM
MYLK3 (human) = MYLK3 (human) (UniProt Q32MK0); assay: KINOMEscan competition binding; conditions: compound 10.0 µM
CLK2 (human) = CLK2 (human) (UniProt P49760); assay: KINOMEscan competition binding; conditions: compound 10.0 µM
TAOK1 (human) = TAOK1 (human) (UniProt Q7L7X3); assay: KINOMEscan competition binding; conditions: compound 10.0 µM
DAPK3 (human) = DAPK3 (human) (UniProt O43293); assay: KINOMEscan competition binding; conditions: compound 10.0 µM
Sequence of DAPK3 (human) (O43293 whole entry, looked up): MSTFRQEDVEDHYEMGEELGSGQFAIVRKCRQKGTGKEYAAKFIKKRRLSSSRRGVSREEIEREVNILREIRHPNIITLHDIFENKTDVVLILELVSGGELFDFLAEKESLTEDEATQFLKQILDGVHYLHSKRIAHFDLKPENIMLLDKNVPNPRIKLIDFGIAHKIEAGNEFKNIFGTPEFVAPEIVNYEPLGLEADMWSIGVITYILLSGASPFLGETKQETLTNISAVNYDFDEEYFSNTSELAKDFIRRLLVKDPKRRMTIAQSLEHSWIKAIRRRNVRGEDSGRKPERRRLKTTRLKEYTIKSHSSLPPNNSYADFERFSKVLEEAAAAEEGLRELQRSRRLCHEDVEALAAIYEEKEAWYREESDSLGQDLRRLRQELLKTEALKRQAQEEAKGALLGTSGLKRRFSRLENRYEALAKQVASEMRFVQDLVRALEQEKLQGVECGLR

TIE1 (human) = TIE1 (human) (UniProt P35590); assay: KINOMEscan competition binding; conditions: compound 10.0 µM
[13] = tested on: EGFR (human), P00533 [L858R]; assay: KINOMEscan competition binding; conditions: compound 10.0 µM
HIPK1 (human) = HIPK1 (human) (UniProt Q86Z02); assay: KINOMEscan competition binding; conditions: compound 10.0 µM
Sequence of HIPK1 (human) (Q86Z02 whole entry, looked up): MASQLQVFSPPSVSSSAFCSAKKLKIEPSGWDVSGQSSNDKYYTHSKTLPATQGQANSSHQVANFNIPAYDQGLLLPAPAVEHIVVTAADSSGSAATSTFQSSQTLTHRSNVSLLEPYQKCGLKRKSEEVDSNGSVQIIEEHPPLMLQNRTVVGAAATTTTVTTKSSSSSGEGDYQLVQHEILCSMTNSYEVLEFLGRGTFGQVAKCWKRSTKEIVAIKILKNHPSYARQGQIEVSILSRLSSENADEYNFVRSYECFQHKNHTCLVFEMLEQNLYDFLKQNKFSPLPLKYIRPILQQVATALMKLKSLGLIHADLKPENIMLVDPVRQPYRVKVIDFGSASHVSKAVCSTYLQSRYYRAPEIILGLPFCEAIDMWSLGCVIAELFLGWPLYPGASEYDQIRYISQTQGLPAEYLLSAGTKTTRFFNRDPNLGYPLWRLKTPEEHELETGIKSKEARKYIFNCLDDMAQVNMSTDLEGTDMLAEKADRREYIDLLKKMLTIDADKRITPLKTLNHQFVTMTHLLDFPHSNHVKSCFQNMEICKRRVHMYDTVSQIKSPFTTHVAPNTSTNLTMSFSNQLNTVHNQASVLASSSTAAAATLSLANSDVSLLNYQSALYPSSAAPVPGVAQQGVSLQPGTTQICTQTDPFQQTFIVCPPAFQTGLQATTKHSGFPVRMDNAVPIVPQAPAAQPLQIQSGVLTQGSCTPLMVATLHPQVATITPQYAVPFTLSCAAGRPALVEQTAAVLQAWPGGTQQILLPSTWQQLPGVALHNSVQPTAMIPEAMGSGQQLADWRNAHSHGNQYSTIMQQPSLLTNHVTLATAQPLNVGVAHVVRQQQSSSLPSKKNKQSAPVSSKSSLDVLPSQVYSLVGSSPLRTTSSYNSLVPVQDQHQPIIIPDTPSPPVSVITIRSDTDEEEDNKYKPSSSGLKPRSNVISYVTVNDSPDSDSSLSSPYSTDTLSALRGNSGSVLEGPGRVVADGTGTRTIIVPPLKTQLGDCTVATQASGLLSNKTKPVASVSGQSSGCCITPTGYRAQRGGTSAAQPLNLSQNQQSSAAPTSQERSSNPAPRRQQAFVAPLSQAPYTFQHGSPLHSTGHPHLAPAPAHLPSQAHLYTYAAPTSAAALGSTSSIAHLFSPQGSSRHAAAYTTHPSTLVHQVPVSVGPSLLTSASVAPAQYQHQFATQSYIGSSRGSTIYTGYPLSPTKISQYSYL

PIK3CG (human) = PIK3CG (human) (UniProt P48736); assay: KINOMEscan competition binding; conditions: compound 10.0 µM
AAK1 (human) = AAK1 (human) (UniProt Q2M2I8); assay: KINOMEscan competition binding; conditions: compound 10.0 µM
EGFR (human) = EGFR (human) (UniProt P00533); assay: KINOMEscan competition binding; conditions: compound 10.0 µM
CIT (human) = CIT (human) (UniProt O14578); assay: KINOMEscan competition binding; conditions: compound 10.0 µM
CSNK2A1 (human) = CSNK2A1 (human) (UniProt P68400); assay: KINOMEscan competition binding; conditions: compound 10.0 µM
PIM3 (human) = PIM3 (human) (UniProt Q86V86); assay: KINOMEscan competition binding; conditions: compound 10.0 µM
DAPK1 (human) = DAPK1 (human) (UniProt P53355); assay: KINOMEscan competition binding; conditions: compound 10.0 µM
STK33 (human) = STK33 (human) (UniProt Q9BYT3); assay: KINOMEscan competition binding; conditions: compound 10.0 µM
PLK4 (human) = PLK4 (human) (UniProt O00444); assay: KINOMEscan competition binding; conditions: compound 10.0 µM
PTK2B (human) = PTK2B (human) (UniProt Q14289); assay: KINOMEscan competition binding; conditions: compound 10.0 µM
ROS1 (human) = ROS1 (human) (UniProt P08922); assay: KINOMEscan competition binding; conditions: compound 10.0 µM
FER (human) = FER (human) (UniProt P16591); assay: KINOMEscan competition binding; conditions: compound 10.0 µM
TNK1 (human) = TNK1 (human) (UniProt Q13470); assay: KINOMEscan competition binding; conditions: compound 10.0 µM
AKT3 (human) = AKT3 (human) (UniProt Q9Y243); assay: KINOMEscan competition binding; conditions: compound 10.0 µM
INSR (human) = INSR (human) (UniProt P06213); assay: KINOMEscan competition binding; conditions: compound 10.0 µM
ALK (human) = ALK (human) (UniProt Q9UM73); assay: KINOMEscan competition binding; conditions: compound 10.0 µM
STK4 (human) = STK4 (human) (UniProt Q13043); assay: KINOMEscan competition binding; conditions: compound 10.0 µM
MYLK (human) = MYLK (human) (UniProt Q15746); assay: KINOMEscan competition binding; conditions: compound 10.0 µM
DCLK1 (human) = DCLK1 (human) (UniProt O15075); assay: KINOMEscan competition binding; conditions: compound 10.0 µM
PLK3 (human) = PLK3 (human) (UniProt Q9H4B4); assay: KINOMEscan competition binding; conditions: compound 10.0 µM
DCLK2 (human) = DCLK2 (human) (UniProt Q8N568); assay: KINOMEscan competition binding; conditions: compound 10.0 µM
INSRR (human) = INSRR (human) (UniProt P14616); assay: KINOMEscan competition binding; conditions: compound 10.0 µM
CSNK1E (human) = CSNK1E (human) (UniProt P49674); assay: KINOMEscan competition binding; conditions: compound 10.0 µM
RPS6KA2 KD2 (human) = RPS6KA2 KD2 (human) (UniProt Q15349); assay: KINOMEscan competition binding; conditions: compound 10.0 µM
PTK2 (human) = PTK2 (human) (UniProt Q05397); assay: KINOMEscan competition binding; conditions: compound 10.0 µM
PLK1 (human) = PLK1 (human) (UniProt P53350); assay: KINOMEscan competition binding; conditions: compound 10.0 µM
TTK (human) = TTK (human) (UniProt P33981); assay: KINOMEscan competition binding; conditions: compound 10.0 µM
ULK2 (human) = ULK2 (human) (UniProt Q8IYT8); assay: KINOMEscan competition binding; conditions: compound 10.0 µM
DMPK (human) = DMPK (human) (UniProt Q09013); assay: KINOMEscan competition binding; conditions: compound 10.0 µM
RPS6KA1 KD2 (human) = RPS6KA1 KD2 (human) (UniProt Q15418); assay: KINOMEscan competition binding; conditions: compound 10.0 µM
PRKD1 (human) = PRKD1 (human) (UniProt Q15139); assay: KINOMEscan competition binding; conditions: compound 10.0 µM

Sequence of PIM2 (human) (Q9P1W9 whole entry, looked up): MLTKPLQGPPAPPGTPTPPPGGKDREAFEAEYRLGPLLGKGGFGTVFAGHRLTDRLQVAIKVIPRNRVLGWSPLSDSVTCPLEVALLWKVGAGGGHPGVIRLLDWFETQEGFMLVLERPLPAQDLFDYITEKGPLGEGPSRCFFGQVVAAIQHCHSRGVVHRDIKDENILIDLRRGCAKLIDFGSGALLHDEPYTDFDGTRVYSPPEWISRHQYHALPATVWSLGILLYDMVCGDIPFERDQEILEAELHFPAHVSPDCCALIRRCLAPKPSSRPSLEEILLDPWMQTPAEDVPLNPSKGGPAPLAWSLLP
Sequence of PIM1 (human) (P11309 whole entry, looked up): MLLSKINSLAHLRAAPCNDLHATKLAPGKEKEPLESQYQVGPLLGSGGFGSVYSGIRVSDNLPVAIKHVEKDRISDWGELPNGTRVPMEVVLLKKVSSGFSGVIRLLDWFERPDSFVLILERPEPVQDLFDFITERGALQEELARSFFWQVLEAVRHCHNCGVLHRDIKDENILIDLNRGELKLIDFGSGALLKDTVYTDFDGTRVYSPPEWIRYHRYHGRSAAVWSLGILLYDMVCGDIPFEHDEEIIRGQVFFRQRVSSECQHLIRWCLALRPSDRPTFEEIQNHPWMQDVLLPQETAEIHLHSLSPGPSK
Sequence of DAPK2 (human) (Q9UIK4 whole entry, looked up): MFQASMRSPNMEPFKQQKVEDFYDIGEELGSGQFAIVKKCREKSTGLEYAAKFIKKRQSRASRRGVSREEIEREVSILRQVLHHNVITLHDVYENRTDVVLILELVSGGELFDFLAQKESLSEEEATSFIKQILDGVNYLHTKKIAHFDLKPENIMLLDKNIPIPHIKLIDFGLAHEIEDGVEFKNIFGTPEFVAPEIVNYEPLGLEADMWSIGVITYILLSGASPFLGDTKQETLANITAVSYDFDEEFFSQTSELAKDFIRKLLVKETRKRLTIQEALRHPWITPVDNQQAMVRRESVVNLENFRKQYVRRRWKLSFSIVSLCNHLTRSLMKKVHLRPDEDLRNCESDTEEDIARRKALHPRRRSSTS

## O=C1NC(=O)/C(=C/c2ccc(-c3ccc(F)cc3O)o2)S1
PIM2 (human) [1]
  pIC50: 6.80
PIM1 (human) [2]
  pIC50: 7.03
DAPK2 (human)
  kinase still bound, per cent of control: 12%
[3]
  kinase still bound, per cent of control: 19%
STK17A (human)
  kinase still bound, per cent of control: 1.5%
GAK (human)
  kinase still bound, per cent of control: 9.3%
RIPK2 (human)
  kinase still bound, per cent of control: 32%
PIK3C2B (human)
  kinase still bound, per cent of control: 19%
STK17B (human)
  kinase still bound, per cent of control: 3.3%
[4]
  kinase still bound, per cent of control: 15%
PIM2 (human) [5]
  kinase still bound, per cent of control: 2%
[6]
  kinase still bound, per cent of control: 33%
PIK3CD (human)
  kinase still bound, per cent of control: 27%
CSNK2A2 (human)
  kinase still bound, per cent of control: 4.2%
[7]
  kinase still bound, per cent of control: 9.8%
RPS6KA4 KD2 (human)
  kinase still bound, per cent of control: 22%
PIM1 (human) [8]
  kinase still bound, per cent of control: 2.7%
MYLK4 (human)
  kinase still bound, per cent of control: 17%
ACVR2B (human)
  kinase still bound, per cent of control: 9.9%
[9]
  kinase still bound, per cent of control: 5.8%
BMPR2 (human)
  kinase still bound, per cent of control: 12%
[10]
  kinase still bound, per cent of control: 1.9%
MAPK15 (human)
  kinase still bound, per cent of control: 3.6%
[11]
  kinase still bound, per cent of control: 14%
[12]
  kinase still bound, per cent of control: 28%
RPS6KA6 KD2 (human)
  kinase still bound, per cent of control: 18%
TEK (human)
  kinase still bound, per cent of control: 2.1%
MYLK3 (human)
  kinase still bound, per cent of control: 29%
CLK2 (human)
  kinase still bound, per cent of control: 27%
TAOK1 (human)
  kinase still bound, per cent of control: 8.4%
DAPK3 (human)
  kinase still bound, per cent of control: 25%
TIE1 (human)
  kinase still bound, per cent of control: 25%
[13]
  kinase still bound, per cent of control: 20%
HIPK1 (human)
  kinase still bound, per cent of control: 5%
PIK3CG (human)
  kinase still bound, per cent of control: 4%
AAK1 (human)
  kinase still bound, per cent of control: 35%
EGFR (human)
  kinase still bound, per cent of control: 29%
CIT (human)
  kinase still bound, per cent of control: 0.2%
CSNK2A1 (human)
  kinase still bound, per cent of control: 4.4%
PIM3 (human)
  kinase still bound, per cent of control: 4.8%
DAPK1 (human)
  kinase still bound, per cent of control: 10%

## COc1cc(N2CCN(CCO)CC2)ccc1Nc1ncc2c(n1)N(C1CCCC1)CCC(=O)N2C
STK33 (human)
  kinase still bound, per cent of control: 7.2%
PLK4 (human)
  kinase still bound, per cent of control: 9.4%
PTK2B (human)
  kinase still bound, per cent of control: 13%
DAPK2 (human)
  kinase still bound, per cent of control: 32%
[3]
  kinase still bound, per cent of control: 31%
ROS1 (human)
  kinase still bound, per cent of control: 0%
GAK (human)
  kinase still bound, per cent of control: 1.4%
[4]
  kinase still bound, per cent of control: 28%
FER (human)
  kinase still bound, per cent of control: 24%
TNK1 (human)
  kinase still bound, per cent of control: 20%
AKT3 (human)
  kinase still bound, per cent of control: 0%
INSR (human)
  kinase still bound, per cent of control: 30%
ALK (human)
  kinase still bound, per cent of control: 11%
STK4 (human)
  kinase still bound, per cent of control: 0%
MYLK (human)
  kinase still bound, per cent of control: 14%
DCLK1 (human)
  kinase still bound, per cent of control: 4.2%
PLK3 (human)
  kinase still bound, per cent of control: 12%
[7]
  kinase still bound, per cent of control: 23%
DCLK2 (human)
  kinase still bound, per cent of control: 14%
[9]
  kinase still bound, per cent of control: 18%
[10]
  kinase still bound, per cent of control: 20%
INSRR (human)
  kinase still bound, per cent of control: 32%
CSNK1E (human)
  kinase still bound, per cent of control: 0%
[11]
  kinase still bound, per cent of control: 24%
RPS6KA2 KD2 (human)
  kinase still bound, per cent of control: 16%
PTK2 (human)
  kinase still bound, per cent of control: 3.4%
PLK1 (human)
  kinase still bound, per cent of control: 0%
RPS6KA6 KD2 (human)
  kinase still bound, per cent of control: 20%
TTK (human)
  kinase still bound, per cent of control: 1.8%
ULK2 (human)
  kinase still bound, per cent of control: 2%
DAPK3 (human)
  kinase still bound, per cent of control: 28%
DMPK (human)
  kinase still bound, per cent of control: 0%
[13]
  kinase still bound, per cent of control: 31%
RPS6KA1 KD2 (human)
  kinase still bound, per cent of control: 32%
EGFR (human)
  kinase still bound, per cent of control: 29%
PRKD1 (human)
  kinase still bound, per cent of control: 29%
